Common to all, as to format: cell-based, mouse
The test system of assay [1] is Ppara-null hippocampal neurons. Put plainly: Dendritic spine density (phalloidin) in transduced Ppara-null hippocampal neurons. The conditions noted are these: lenti-FL-Ppara. The method, then:
Ppara-null hippocampal neurons were transduced with lentivirions containing GFP (vector), FL-Ppara, and Y464D-Ppara for 48 h followed by treatment with vehicle (DMSO) (FIG. 11A), OCT (FIG. 11B), HEX (FIG. 11C), HMB (FIG. 11D), and WY14643 (FIG. 11E) for 24 h. Then neurons were stained for phalloidin to measure spine density. FIG. 11F) A representative picture of dendrite with spines (Cyan color) used for counting area of spine heads. Area of spine heads (FIG. 11G) and number of spines (FIG. 11H) in 10 μm of dendrites. Results are mean±SEM of 5 neurons per group. ^ap<0.05 vs vector only; ^bp<0.05 vs FL-Ppara. AMPA-driven calcium influx was measured in OCT (red), HEX (green) and HMB (purple)-treated Ppara-null hippocampal neurons transduced with lentivirions containing FL-Ppara (FIG. 11I), Y314D-Ppara (FIG. 11J), Y464D-Ppara (FIG. 11K), and Y314D/Y464D-Ppara (FIG. 11L). All neurons were treated with 50 μM of NMDA receptor antagonist N20C to inhibit passive calcium flow through NMDA receptor. (FIG. 11M-P) Similarly NMDA-driven calcium influx was measured in the lentivius-infected Ppara-null hippocampal neurons in the presence of different endogenous ligands. In these cases, Naspm-HCl was treated to stop the passive flow of calcium currents through AMPA receptor. Results are mean of three independent experiments.
Dendritic spines are the crucial mediators of synaptic transmission among central neurons and often serve as a primary candidate for the long term morphological substrates of neuronal plasticity^12,13. Therefore, the effect of these ligands on the increase of spine density in cultured hippocampal neurons was studied. Briefly, mouse Ppara-null hippocampal neurons were transduced with lentivirus containing empty vector, FL-Ppara, or Y464D-Ppara for a week followed by the treatment with OCT, HEX, and HMB for four more days. After that, neurons were labelled with phalloidin to monitor the spine density. […] This observation was further validated by measuring the area of spine heads (FIG. 11F-G) and number of spines (FIG. 11H) in HEX, OCT, and HMB-treated Ppara-null neurons. HEX (FIG. 17G-H), OCT (FIG. 17I-J) and HMB (FIG. 17K-L) stimulated the expression of CREB in Ppara-null hippocampal neurons that were transduced with lentivirons containing the FL-Ppara gene.
Hippocampal regions were dissected from 18-day-old embryonic fetus as described elsewhere (PMID: 25007337), combined and plated in poly-D-lysine coated plate for another 2-3 weeks for branching. After that, these neurons were transduced with GFP-containing lentivirions for 2 d. Neurons were stained with Dylight-554-conjugated phalloidin (Cat #21834; Thermofisher) as per manufactures protocol and visualized in fluorescence microscope. […]

The subject of assay [2] is NR2A, GluR1 and CREB. Put plainly: Immunoblot and immunofluorescence of synaptic molecules in WT hippocampal neurons. Particulars: 5 μM HEX, 5 μM OCT, 50 μM HMB. The method, then: (FIG. 17A) Immunoblot analyses followed by densitometric analyses of NR2A (FIG. 17B), GluR1 (FIG. 17C) and CREB (FIG. 17D) were performed in Ppara-null and WT hippocampal neurons treated with 5 μM HEX, 5 μM OCT and 50 μM HMB. Data are mean±SD of three different experiments. ^ap<0.05 versus WT-control. Immunocytochemical analyses of NR2A (FIG. 17E) and GluR1 (FIG. 17F) in WT and Ppara-null hippocampal neurons treated with HEX, OCT and HMB. Hippocampal neurons were transduced with lenti-GFP for 48 h followed by treatment with different ligands. Immunoblot analyses followed by relative densitometric analyses of CREB in Ppara-null hippocampal neurons transduced with lentivirions containing different Ppara constructs followed by treatment with HEX (FIG. 17G-H), OCT (FIG. 17I-J) and HMB (FIG. 17K-L). Bands were scanned and presented as relative to control (FIG. 17H, HEX; FIG. 17J, OCT; FIG. 17L, HMB). Data are mean±SD of three different experiments. ^ap<0.05 vs FLPpara control.
Isolation of Mouse Hippocampal Neurons: Hippocampal neurons were isolated from fetuses (E18) of pregnant female Ppara-null and strain-matched WT littermate mice as described by us^6,13,35-36 with some modifications. Briefly, dissection and isolation procedures were performed in an ice-cold, sucrose buffer solution (sucrose 0.32 M, Tris 0.025 M; pH 7.4)^37. The skin and the skull were carefully removed from the brain by scissors followed by peeling off the meninges by a pair of fine tweezers. Next, a fine incision was made in the middle line around the circle of Willis and medial temporal lobe was opened up. Hippocampus was isolated as a thin slice of tissue located near the cortical edge of medial temporal lobe. Hippocampal tissues isolated from all fetal pups (n>10) were combined together and homogenized with 1 ml of trypsin for 5 minutes at 37° C. followed by neutralization of trypsin. The single cell suspension of hippocampal tissue was plated in the poly-D-lysine pre-coated 75 mm flask. Five min after plating, the supernatants were carefully removed and replaced with complete neurobasal media. The next day, 10 μM AraC was added to remove glial contamination in the neuronal culture. The pure cultures of hippocampal neurons were allowed to differentiate fully for 9-10 days before treatment^35,36,38.
For whole-cell and tissue lysates, samples were homogenized in RIPA buffer containing protease and phosphatase inhibitors (Sigma), passed 10 times through a 26-gauge needle, rotated end over end for 30 min at 4° C., and centrifuged for 10 min at 18,000×g. The supernatant was aliquoted and stored at −80° C. until use. Protein concentrations were determined using a NanoDrop 2000 (Thermo Fisher), and 15-30 μg sample was heat-denatured and resolved on 10% or 12% polyacrylamide-SDS gels, transferred to 0.45 μm nitrocellulose membranes under semidry conditions (15V for 12 min). Membranes were blocked for 1 h with blocking buffer (Li-Cor), incubated with primary antibodies overnight at 4° C. under shaking conditions, washed, incubated with IR-dye-labeled secondary antibodies (1:17,000; Li-Cor) for 45 min at room temperature, washed, and visualized with the Odyssey Infrared Imaging System (Li-Cor). Blots were converted to grayscale and then binary, analyzed using Fiji, and normalized to appropriate loading controls.
A general note: A western blot detects proteins with antibodies after separation by electrophoresis.

The test system of assay [3] is PPRE-driven luciferase activity. Put plainly: PPRE-luciferase assay in Pparb-null astrocytes with PPARγ antagonist GW9662. The conditions noted are these: for PPRE luciferase activity: Pparb-null astrocytes; for effect of GW9662 on ligand-mediated increase in PPRE-luciferase activity: Pparb-null astrocytes pre-treated with GW9662. The method, then:
FIG. 16A) Pparb-null primary astrocytes plated at 60-70% confluence in 12-well plates were transfected with 0.25 μg of tkPPREx3-Luc (a PPRE-dependent luciferase reporter construct). Twenty-four hours after transfection, cells were treated with different concentrations of GW9662 for 30 min followed by stimulation with rosiglitazone. After 4 h, luciferase activities were assayed. […] After transfection, cells were also treated with GW9662 followed by stimulation with OCT (FIG. 16B), HEX (FIG. 16C) and HMB (FIG. 16D).
These astrocytes were pre-treated with PPARγ-antagonist GW9662 to nullify the involvement of PPARγ in reporter assay.

This note sets out measurements from patent US10617664B2, “Brain derived PPARα ligands” (Rush University Medical Center, priority 2015, dated 2020).

Take `CCCCCCCCCCCCCCCC(N)=O` [HEX, hexadecanamide]: the density of spines result in assay [1] was “stimulated”. In addition, in assay [2], the “expression of CREB” value was “upregulated”, the “expression of GluR1” value is on record as “upregulated” and the “expression of NR2A” value is given as “upregulated”. In addition, in assay [3], the PPRE luciferase activity entry is “markedly increased” and the “effect of GW9662 on ligand-mediated increase in PPRE-luciferase activity” value was “remained unable to inhibit”.
For the compound `CCOC(=O)C(C)(C)C(C)O` (stereo not drawn) [HMB], the density of spines entry in assay [1] is “stimulated”. Moreover, in assay [2], the “expression of CREB” value is “upregulated”, the “expression of GluR1” value is “upregulated” and the “expression of NR2A” value was “upregulated”. Besides, in assay [3], the PPRE luciferase activity entry is recorded as “markedly increased” and the “effect of GW9662 on ligand-mediated increase in PPRE-luciferase activity” value was “remained unable to inhibit”.
In the case of `CCCCCCCCC=CCCCCCCCC(N)=O` [OCT, 9-octadecenamide], the density of spines result in assay [1] was “stimulated”. Besides, in assay [2], the “expression of CREB” value was “upregulated”, the “expression of GluR1” value is listed as “upregulated” and the “expression of NR2A” value is listed as “upregulated”. Also, in assay [3], the PPRE luciferase activity entry is given as “markedly increased” and the “effect of GW9662 on ligand-mediated increase in PPRE-luciferase activity” value is reported as “remained unable to inhibit”.
